According to patent US20150141411A1, “SUBSTITUTED 3,4-DIHYDRO-2H-PYRIDO[1,2-A]PYRAZINE-1,6-DIONE DERIVATIVES USEFUL FOR THE TREATMENT OF (INTER ALIA) ALZHEIMER'S DISEASE” (Janssen Pharmaceuticals, Inc., priority 2012, published 2015):

Assays:
Set-up in all cases: species or system mouse
Aβ38 = test: In vivo efficacy: brain soluble Aβ38 in non-transgenic rodents (MSD electrochemiluminescence multiplex); conditions: Mus musculus, po, 4 h, dose 30 mg/kg oral dosing, brain soluble fraction, animals sacrificed after 4 h, untreated animals (Ctrl) set at 100, read-out: Aβ38 (% vs Ctrl)_Mean
Text: (§1) To determine whether acute administration of an Aβ38 increasing agents would increase Aβ38 levels in vivo, non-transgenic rodents, e.g. mice or rats were used. Animals treated with the Aβ38 increasing agents were examined and compared to those untreated or treated with vehicle and brain levels of soluble Aβ42, Aβ40, Aβ38, and Aβ37 were quantitated by MSD electrochemiluminescence detection technology. Treatment periods varied from hours (h) to days and were adjusted based on the results of the Aβ38 increase once a time course of onset of effect could be established.
(§2) A typical protocol for measuring Aβ38 increase in vivo is shown but it is only one of many variations that could be used to optimize the levels of detectable Aβ. For example, Aβ38 increasing agents were formulated in 20% of Captisol® (a sulfobutyl ether of β-cyclodextrin) in water or 20% hydroxypropyl βcyclodextrin. The Aβ38 increasing agents were administered as a single oral dose or by any acceptable route of administration to overnight fasted animals. After 4 h, the animals were sacrificed and Aβ38 levels were analysed.
(§3) Blood was collected by decapitation and exsanguinations in EDTA-treated collection tubes. Blood was centrifuged at 1900 g for 10 minutes (min) at 4° C. and the plasma recovered and flash frozen for later analysis. The brain was removed from the cranium and hindbrain. The cerebellum was removed and the left and right hemisphere were separated. The left hemisphere was stored at −18° C. for quantitative analysis of test compound levels. The right hemisphere was rinsed with phosphate-buffered saline (PBS) buffer and immediately frozen on dry ice and stored at −80° C. until homogenization for biochemical assays.
(§4) Mouse brains from non-transgenic animals were resuspended in 8 volumes of 0.4% DEA (diethylamine)/50 mM NaCl containing protease inhibitors (Roche-11873580001 or 04693159001) per gram of tissue, e.g. for 0.158 g brain, add 1.264 ml of 0.4% DEA. All samples were homogenized in the FastPrep-24 system (MP Biomedicals) using lysing matrix D (MPBio #6913-100) at 6 m/s for 20 seconds. Homogenates were centrifuged at 20800×g for 5 min and supernatants collected. Supernatants were centrifuged at 221.300×g for 50 min. The resulting high speed supernatants were then transferred to fresh eppendorf tubes. Nine parts of supernatant were neutralized with 1 part 0.5 M Tris-HCl pH 6.8 and used to quantify Aβ.
(§5) To quantify the amount of Aβ42, Aβ40, Aβ38, and Aβ37 in the soluble fraction of the brain homogenates, simultaneous specific detection of Aβ42, Aβ40, Aβ38, and Aβ37 was performed using MSD's electro-chemiluminescence multiplex detection technology. In this assay purified monoclonal antibodies specific for Abeta37 (JRD/Aβ37/3), Abeta38 (J&JPRD/Aβ38/5), Abeta40 (JRF/cAβ40/28), and Abeta42 (JRF/cAβ42/26) were coated on MSD 4-plex plates. Briefly, the standards (a dilution of synthetic Aβ42, Aβ40, Aβ38, and Aβ37) were prepared in 1.5 ml Eppendorf tube in Ultraculture, with final concentrations ranging from 10000 to 0.3 pg/m. The samples and standards were co-incubated with Sulfo-tag labelled JRF/rAβ/2 antibody to the N-terminus of Aβ as detector antibody. 50 μl of conjugate/sample or conjugate/standards mixtures were then added to the antibody-coated plate. The plate was allowed to incubate overnight at 4° C. in order to allow formation of the antibody-amyloid complex. Following this incubation and subsequent wash steps the assay was finished by adding read buffer according to the manufacturer's instructions (MesoScale Discovery, Gaitherburg, Md.).
(§6) The SULFO-TAG emits light upon electrochemical stimulation initiated at the electrode. MSD Sector instrument SI6000 was used for signal read-out.
In this model a Aβ38 increase compared to untreated animals would be advantageous, in particular a Aβ38 increase with at least 10%, more in particular a Aβ38 increase with at least 20%. […]

Aβ42 = test: In vivo efficacy: brain soluble Aβ42 in non-transgenic rodents (MSD electrochemiluminescence multiplex); conditions: Mus musculus, po, 4 h, dose 30 mg/kg oral dosing, brain soluble fraction, animals sacrificed after 4 h, untreated animals (Ctrl) set at 100, read-out: Aβ42 (% vs Ctrl)_Mean
Text: as §1, with “Aβ42 lowering agent” for “Aβ38 increasing agents”, “reduce Aβ42” for “increase Aβ38”, “Meso Scale Discovery's (MSD)” for “MSD”, “Aβ42 lowering” for “Aβ38 increase”
as §2, with “measuring Aβ42 lowering” for “measuring Aβ38 increase”, “example, Aβ42 lowering compounds” for “example, Aβ38 increasing agents”, “(a sulfo-butyl” for “(a sulfobutyl”, “The Aβ42 lowering” for “The Aβ38 increasing”, “and Aβ42” for “and Aβ38”
as §3, §4
as §5, with “(Meso Scale” for “(MesoScale”
as §6
In this model a Aβ42 lowering compared to untreated animals would be advantageous, in particular a Aβ42 lowering with at least 10%, more in particular a Aβ42 lowering with at least 20%. […]

Aβ40 = test: In vivo efficacy: brain soluble Aβ40 in non-transgenic rodents (MSD electrochemiluminescence multiplex); conditions: Mus musculus, po, 4 h, dose 30 mg/kg oral dosing, brain soluble fraction, animals sacrificed after 4 h, untreated animals (Ctrl) set at 100, read-out: Aβ40 (% vs Ctrl)_Mean
Text: as §1, with “Aβ42 lowering agent” for “Aβ38 increasing agents”, “reduce Aβ42” for “increase Aβ38”, “Meso Scale Discovery's (MSD)” for “MSD”, “Aβ42 lowering” for “Aβ38 increase”
as §2, with “measuring Aβ42 lowering” for “measuring Aβ38 increase”, “example, Aβ42 lowering compounds” for “example, Aβ38 increasing agents”, “(a sulfo-butyl” for “(a sulfobutyl”, “The Aβ42 lowering” for “The Aβ38 increasing”, “and Aβ42” for “and Aβ38”
as §3, §4
as §5, with “(Meso Scale” for “(MesoScale”
as §6
The results are shown in Table 5 (dose 30 mg/kg oral dosing) (value for untreated animals as control (Ctrl) was set at 100): […]

Work on `Cc1cn(-c2ccc3n(c2=O)CC(C)N(Cc2c[nH]c4cc(C(F)(F)F)ccc24)C3=O)cn1` (stereo not drawn) [compound 203] yielded a response vs control in vivo at 30 mg/kg (Aβ38) of 133%, a response vs control in vivo at 30 mg/kg (Aβ42) of 67% and a response vs control in vivo at 30 mg/kg (Aβ40) of 137%.
